Assay results reported in US20070249590A1, “Substituted indolo[2,3-a]pyrrolo[3,4-c]carbazole compounds useful in treating kinase disorders” (priority 2005, published 2007).

These compounds were tested against T1, JAK3 (JH1 and JH2 domain) (Homo sapiens, UniProt P52333) (assay: JAK3 Kinase Assay (ELISA of peptide substrate phosphorylation)). Conditions: purified JAK3 enzyme, 10 μM ATP, biotinylated peptide substrate, 1 hour at room temperature.
T1 sequence (P52333 521-1111 limits assumed): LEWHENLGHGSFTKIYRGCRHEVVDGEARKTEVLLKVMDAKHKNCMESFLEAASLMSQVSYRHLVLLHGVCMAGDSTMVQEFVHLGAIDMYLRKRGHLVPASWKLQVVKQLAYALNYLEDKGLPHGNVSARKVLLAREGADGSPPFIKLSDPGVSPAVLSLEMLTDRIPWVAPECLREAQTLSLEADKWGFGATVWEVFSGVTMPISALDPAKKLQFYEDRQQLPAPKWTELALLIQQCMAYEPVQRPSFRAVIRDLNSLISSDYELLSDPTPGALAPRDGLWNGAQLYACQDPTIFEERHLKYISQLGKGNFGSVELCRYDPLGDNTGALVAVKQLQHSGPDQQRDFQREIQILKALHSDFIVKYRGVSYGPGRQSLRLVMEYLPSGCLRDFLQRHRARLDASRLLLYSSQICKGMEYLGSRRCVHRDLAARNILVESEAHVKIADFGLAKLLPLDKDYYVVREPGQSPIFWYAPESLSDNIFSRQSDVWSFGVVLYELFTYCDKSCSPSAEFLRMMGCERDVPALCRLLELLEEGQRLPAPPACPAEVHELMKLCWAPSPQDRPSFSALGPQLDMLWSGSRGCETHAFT
Assay type: biochemical
Outline: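 Sf21-baculovirus-expressed JAK3 (JH1+JH2), glutathione-bead purified, with biotinylated peptide substrate (in buffer containing 10 μM ATP) in HEPES pH 7.5/MgCl2/DTT, 1 h RT. Product was captured on Neutravidin, detected with HRP anti-phosphotyrosine (PY99)/TMB, OD 450/650 nm. Triplicate 16-point half-log series from 200 μM gave IC50; otherwise % inhibition at 1 μM.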

Compound | IC50 [nM]
O=C1NC(=O)c2c1c1c3ccccc3n3c1c1c2c2ccccc2n1CC(OC(=O)N1CCN(c2ccncc2)CC1)CC3 (stereo not drawn) [Cpd 55, 12,13-{2-[(4-pyridin-4-yl-piperazin-1-yl)carbonyloxy]-butan-1,4-yl}-12,13-dihydro-5,7-dioxo-6H-indolo[2,3-a]pyrrolo[3,4-c]carbazole] | 314
CN(C)CCNC(=O)/C=C/c1ccc2c(c1)c1c3c(c4c5ccccc5n5c4c1n2CC(CO)C5)CNC3=O (stereo not drawn) [Cpd 222, 3-{(2E)-2-[(2-dimethylamino-ethyl)carbamoyl]ethenyl}-12,13-(2-hydroxymethyl-propan-1,3-yl)-6,7,12,13-tetrahydro-5-oxo-5H-indolo[2,3-a]pyrrolo[3,4-c]carbazole] | 237
O=C1NC(=O)c2c1c1c3ccccc3n3c1c1c2c2ccccc2n1CC(O)C(O)CC3 (stereo not drawn) [Cpd 11, 12,13-(2,3-dihydroxy-pentan-1,5-yl)-12,13-dihydro-5,7-dioxo-6H-indolo[2,3-a]pyrrolo[3,4-c]carbazole] | 9
Cc1ccc(CNC(=O)OCC2Cn3c4ccccc4c4c5c(c6c7ccccc7n(c6c43)C2)C(=O)NC5)o1 (stereo not drawn) [Cpd 156, 12,13-(2-{[(5-methyl-furan-2-yl)methyl]carbamoyloxymethyl}-propan-1,3-yl)-6,7,12,13-tetrahydro-5-oxo-5H-indolo[2,3-a]pyrrolo[3,4-c]carbazole] | ~200
O=C1NC(=O)c2c1c1c3ccccc3n3c1c1c2c2ccccc2n1CC(OC(=O)N1CCOCC1)C(O)C3 (stereo not drawn) [Cpd 98, 12,13-[2-(morpholin-4-yl-carbonyloxy)-3-hydroxy-butan-1,4-yl]-12,13-dihydro-5,7-dioxo-6H-indolo[2,3-a]pyrrolo[3,4-c]carbazole] | 108
O=C1NCc2c1c1c3cc(O)ccc3n3c1c1c2c2ccccc2n1CC(O)C(O)C3 (stereo not drawn) [Cpd 189, 3-hydroxy-12,13-(2,3-dihydroxy-butan-1,4-yl)-6,7,12,13-tetrahydro-5-oxo-5H-indolo[2,3-a]pyrrolo[3,4-c]carbazole] | 3
CN(C)CCN(Cc1ccccc1)C(=O)OC1Cn2c3ccccc3c3c4c(c5c6ccccc6n(c5c32)CC1O)C(=O)NC4=O (stereo not drawn) [Cpd 69, 12,13-(2-{[N-benzyl-N-(2-dimethylamino-ethyl)]carbamoyloxy}-3-hydroxy-butan-1,4-yl)-12,13-dihydro-5,7-dioxo-6H-indolo[2,3-a]pyrrolo[3,4-c]carbazole] | 55
O=C(NCCCN1CCCC1=O)OC1Cn2c3ccccc3c3c4c(c5c6ccccc6n(c5c32)CC1O)C(=O)NC4=O (stereo not drawn) [Cpd 79, 12,13-(2-{[3-(2-oxo-pyrrolidin-1-yl)prop-1-yl]carbamoyloxy}-3-hydroxy-butan-1,4-yl)-12,13-dihydro-5,7-dioxo-6H-indolo[2,3-a]pyrrolo[3,4-c]carbazole] | 48
CN(C)[C@H]1CCN(C(=O)OC2CCn3c4ccccc4c4c5c(c6c7ccccc7n(c6c43)C2)C(=O)NC5=O)C1 (stereo partly drawn) [Cpd 73, 12,13-(2-{[(3S)-3-dimethylamino-pyrrolidin-1-yl]carbonyloxy}-butan-1,4-yl)-12,13-dihydro-5,7-dioxo-6H-indolo[2,3-a]pyrrolo[3,4-c]carbazole] | 42
O=C(NCC1CCCCC1)OC1Cn2c3ccccc3c3c4c(c5c6ccccc6n(c5c32)CC1O)C(=O)NC4=O (stereo not drawn) [Cpd 81, 12,13-{2-[(cyclohexyl-methyl)carbamoyloxy]-3-hydroxy-butan-1,4-yl}-12,13-dihydro-5,7-dioxo-6H-indolo[2,3-a]pyrrolo[3,4-c]carbazole] | 434
O=C1NC(=O)c2c1c1c3cc(-c4cccnc4)ccc3n3c1c1c2c2ccccc2n1CC(O)CC3 (stereo not drawn) [Cpd 32, 3-pyridin-3-yl-12,13-(2-hydroxy-butan-1,4-yl)-12,13-dihydro-5,7-dioxo-6H-indolo[2,3-a]pyrrolo[3,4-c]carbazole] | 35
O=C1NCc2c1c1c3cc(CN4CCOCC4)ccc3n3c1c1c2c2ccccc2n1CC(O)C(O)C3 (stereo not drawn) [Cpd 194, 3-(morpholin-4-ylmethyl)-12,13-(2,3-dihydroxy-butan-1,4-yl)-6,7,12,13-tetrahydro-5-oxo-5H-indolo[2,3-a]pyrrolo[3,4-c]carbazole] | 503
CN1CCN(CCCNC(=O)OC2CCCn3c4ccccc4c4c5c(c6c7ccccc7n(c6c43)C2)C(=O)NC5=O)CC1 (stereo not drawn) [Cpd 116, 12,13-(2-{[3-(4-methyl-piperazin-1-yl)prop-1-yl]carbamoyloxy}-pentan-1,5-yl)-12,13-dihydro-5,7-dioxo-6H-indolo[2,3-a]pyrrolo[3,4-c]carbazole] | > 200
O=C1NCc2c1c1c3ccccc3n3c1c1c2c2ccccc2n1CC(O)(COC(=O)N1CCN(c2ccc(O)cc2)CC1)C3 (stereo not drawn) [Cpd 137, 12,13-(2-hydroxy-2-{[4-(4-hydroxy-phenyl)piperazin-1-yl]carbonyloxymethyl}-propan-1,3-yl)-6,7,12,13-tetrahydro-5-oxo-5H-indolo[2,3-a]pyrrolo[3,4-c]carbazole] | 175
CN(C)CCN(C)C(=O)OC1CCn2c3ccccc3c3c4c(c5c6ccccc6n(c5c32)C1)C(=O)NC4=O (stereo not drawn) [Cpd 67, 12,13-(2-{[N-methyl-N-(2-dimethylamino-ethyl)]carbamoyloxy}-butan-1,4-yl)-12,13-dihydro-5,7-dioxo-6H-indolo[2,3-a]pyrrolo[3,4-c]carbazole] | 247
O=C1NCc2c1c1c3cc(/C=C/c4ccccn4)ccc3n3c1c1c2c2ccccc2n1CC(CO)C3 (stereo not drawn) [Cpd 216, 3-[(2E)-2-pyridin-2-yl-ethenyl]-12,13-(2-hydroxymethyl-propan-1,3-yl)-6,7,12,13-tetrahydro-5-oxo-5H-indolo[2,3-a]pyrrolo[3,4-c]carbazole] | 310
O=C1NC(=O)c2c1c1c3ccccc3n3c1c1c2c2ccccc2n1CC(OC(=O)N1CCC(C2CCCCC2)CC1)CC3 (stereo not drawn) [Cpd 53, 12,13-{2-[(4-cyclohexyl-piperazin-1-yl)carbonyloxy]-butan-1,4-yl}-12,13-dihydro-5,7-dioxo-6H-indolo[2,3-a]pyrrolo[3,4-c]carbazole] | > 400

Continued, values first:

IC50 [nM] | Compound
35 | O=C(NC1CCNCC1)OC1CCn2c3ccccc3c3c4c(c5c6ccccc6n(c5c32)C1)C(=O)NC4=O (stereo not drawn) [Cpd 75, 12,13-[2-(piperidin-4-yl-carbamoyloxy)-butan-1,4-yl]-12,13-dihydro-5,7-dioxo-6H-indolo[2,3-a]pyrrolo[3,4-c]carbazole]
> 400 | CCCNC(=O)OC1CCn2c3ccccc3c3c4c(c5c6ccccc6n(c5c32)C1)C(=O)NC4=O (stereo not drawn) [Cpd 38, 12,13-[2-(prop-1-ylcarbamoyloxy)-butan-1,4-yl]-12,13-dihydro-5,7-dioxo-6H-indolo[2,3-a]pyrrolo[3,4-c]carbazole]
706 | CC(C)NC(=O)OC1CCn2c3ccccc3c3c4c(c5c6ccccc6n(c5c32)CC1)C(=O)NC4 (stereo not drawn) [Cpd 180, 12,13-[3-(isopropyl-carbamoyloxy)-pentan-1,5-yl]-6,7,12,13-tetrahydro-5-oxo-5H-indolo[2,3-a]pyrrolo[3,4-c]carbazole]
68 | O=C1NCc2c1c1c3ccccc3n3c1c1c2c2ccccc2n1Cc1c[nH]cc1C3 [Cpd 30, 12,13-(1H-pyrrol[3,4-b]butan-1,4-yl)-6,7,12,13-tetrahydro-5-oxo-5H-indolo[2,3-a]pyrrolo[3,4-c]carbazole]
125 | CN(C)CCNC(=O)OC1CCCn2c3ccccc3c3c4c(c5c6ccccc6n(c5c32)C1)C(=O)NC4=O (stereo not drawn) [Cpd 114, 12,13-{2-[(2-dimethylamino-ethyl)carbamoyloxy]-pentan-1,5-yl}-12,13-dihydro-5,7-dioxo-6H-indolo[2,3-a]pyrrolo[3,4-c]carbazole]
15 | O=C1NCc2c1c1c3ccccc3n3c1c1c2c2ccccc2n1CC(CO)(CO)C3 [Cpd 27, 12,13-(2,2-bis-hydroxymethyl-propan-1,3-yl)-6,7,12,13-tetrahydro-5-oxo-5H-indolo[2,3-a]pyrrolo[3,4-c]carbazole]
1270 | COc1ccc(CCNC(=O)OC2CCn3c4ccccc4c4c5c(c6c7ccccc7n(c6c43)CC2)C(=O)NC5)cc1OC (stereo not drawn) [Cpd 183, 12,13-(3-{[2-(3,4-dimethoxy-phenyl)ethyl]carbamoyloxy}-pentan-1,5-yl)-6,7,12,13-tetrahydro-5-oxo-5H-indolo[2,3-a]pyrrolo[3,4-c]carbazole]
1670 | COC[C@H](C)NC(=O)OC1CCn2c3ccccc3c3c4c(c5c6ccccc6n(c5c32)CC1)C(=O)NC4 (stereo partly drawn) [Cpd 182, 12,13-[3-({2-[(1S)-2-methoxy-1-methyl]ethyl}carbamoyloxy)-pentan-1,5-yl]-6,7,12,13-tetrahydro-5-oxo-5H-indolo[2,3-a]pyrrolo[3,4-c]carbazole]
39 | O=C1NCc2c1c1c3ccccc3n3c1c1c2c2ccccc2n1CC(O)(COC(=O)N1CCC(O)CC1)C3 (stereo not drawn) [Cpd 149, 12,13-{2-hydroxy-2-[(4-hydroxy-piperidin-1-yl)carbonyloxymethyl]-propan-1,3-yl}-6,7,12,13-tetrahydro-5-oxo-5H-indolo[2,3-a]pyrrolo[3,4-c]carbazole]
39 | O=C1NCc2c1c1c3ccccc3n3c1c1c2c2ccccc2n1CC/C=C\CC3 [Cpd 5, 12,13-(hex-3-en-1,6-yl)-6,7,12,13-tetrahydro-5-oxo-5H-indolo[2,3-a]pyrrolo[3,4-c]carbazole]
